Test results: patent US11174248B2, “Indazolyl-spiro[2.3]hexane-carbonitrile derivatives as LRRK2 inhibitors, pharmaceutical compositions, and uses thereof” (Merck Sharp & Dohme Corp., priority 2017, dated 2021)
pIC50: −log10 of the molar value.

target: GST-tagged truncated human mutant G2019S LRRK2 (Homo sapiens (Human), UniProt Q5S007, G2019S); test: LRRK2 Km ATP LanthaScreen Assay; assay type: biochemical; conditions: 134 μM ATP (Km ATP); fluorescein-labeled LRRKtide substrate; mean IC50 values
Sequence (Q5S007 970-2527 G2019S): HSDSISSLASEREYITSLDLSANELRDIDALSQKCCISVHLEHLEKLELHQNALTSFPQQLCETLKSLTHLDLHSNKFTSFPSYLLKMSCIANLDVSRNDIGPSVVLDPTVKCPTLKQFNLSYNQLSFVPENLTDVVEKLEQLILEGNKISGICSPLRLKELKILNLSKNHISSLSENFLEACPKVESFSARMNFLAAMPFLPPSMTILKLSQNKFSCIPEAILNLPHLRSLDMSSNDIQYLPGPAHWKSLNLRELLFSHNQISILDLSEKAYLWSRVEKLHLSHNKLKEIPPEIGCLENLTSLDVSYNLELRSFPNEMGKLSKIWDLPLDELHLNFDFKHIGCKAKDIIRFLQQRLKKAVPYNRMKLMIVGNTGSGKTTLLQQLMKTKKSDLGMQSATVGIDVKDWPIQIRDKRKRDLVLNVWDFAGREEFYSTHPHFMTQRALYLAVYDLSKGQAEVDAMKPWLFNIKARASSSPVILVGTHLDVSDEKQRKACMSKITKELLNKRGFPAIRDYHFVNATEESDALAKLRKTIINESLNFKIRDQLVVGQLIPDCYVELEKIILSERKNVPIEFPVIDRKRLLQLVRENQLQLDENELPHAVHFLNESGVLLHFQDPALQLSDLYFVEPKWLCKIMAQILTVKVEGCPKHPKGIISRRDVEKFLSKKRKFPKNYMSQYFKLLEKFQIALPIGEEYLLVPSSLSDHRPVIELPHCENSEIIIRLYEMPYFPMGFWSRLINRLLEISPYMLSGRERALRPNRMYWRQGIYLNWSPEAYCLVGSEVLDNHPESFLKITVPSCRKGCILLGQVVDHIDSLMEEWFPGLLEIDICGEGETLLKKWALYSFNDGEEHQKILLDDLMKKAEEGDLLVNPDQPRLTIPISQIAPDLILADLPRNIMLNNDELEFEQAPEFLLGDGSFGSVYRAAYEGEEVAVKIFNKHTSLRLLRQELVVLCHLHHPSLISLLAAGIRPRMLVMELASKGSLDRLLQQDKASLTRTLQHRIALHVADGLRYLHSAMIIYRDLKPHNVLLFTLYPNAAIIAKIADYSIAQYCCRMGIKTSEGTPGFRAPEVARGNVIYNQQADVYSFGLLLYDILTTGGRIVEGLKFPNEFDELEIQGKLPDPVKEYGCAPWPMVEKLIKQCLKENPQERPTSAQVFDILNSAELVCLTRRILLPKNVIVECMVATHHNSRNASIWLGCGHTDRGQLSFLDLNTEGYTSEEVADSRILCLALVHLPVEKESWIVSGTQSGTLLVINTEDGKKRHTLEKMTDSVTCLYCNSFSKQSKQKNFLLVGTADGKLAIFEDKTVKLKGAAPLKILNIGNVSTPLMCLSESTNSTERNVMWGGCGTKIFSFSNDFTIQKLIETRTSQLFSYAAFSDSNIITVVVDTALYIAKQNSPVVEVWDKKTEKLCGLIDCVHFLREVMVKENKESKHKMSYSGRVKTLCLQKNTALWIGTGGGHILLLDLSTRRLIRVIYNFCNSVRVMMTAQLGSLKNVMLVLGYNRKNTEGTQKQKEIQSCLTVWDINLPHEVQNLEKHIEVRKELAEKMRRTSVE
Procedure: Unless otherwise noted, all LRRK2 IC50 data presented in tables refers to the LRRK2 Km ATP LanthaScreen™ Assay that is described in the Biological Assay section.
Biological Assay: LRRK2 Km ATP LanthaScreen™ Assay
The LRRK2 kinase activity reported herein as IC50 values was determined with LanthaScreen™ technology from Life Technologies Corporation (Carlsbad, Calif.) using GST-tagged truncated human mutant G2019S LRRK2 in the presence of the fluorescein-labeled peptide substrate LRRKtide, also from Life Technologies. The data presented for the Km ATP LanthaScreen™ Assay represents mean IC50 values based on several test results and may have reasonable deviations depending on the specific conditions and reagents used. Assays were performed in the presence of 134 μM ATP (Km ATP). Upon completion, the assay was stopped and phosphorylated substrate detected with a terbium (Tb)-labeled anti-pERM antibody (cat. no. PV4898). The compound dose response was prepared by diluting a 10 mM stock of compound to a maximum concentration of 9.99 μM in 100% dimethylsulfoxide followed by custom fold serial dilution in dimethylsulfoxide nine times. Twenty nanoliters of each dilution was spotted via a Labcyte Echo onto a 384-well black-sided plate (Corning 3575) followed by 15 μl of a 1.25 nM enzyme solution in 1× assay buffer (50 mM Tris pH 8.5, 10 mM MgCl2, 0.01% Brij-35, 1 mM EGTA, 2 mM dithiothreitol, 0.05 mM sodium orthovanadate) Following a 15-minute incubation at room temperature, the kinase reaction was started with the addition of 5 μl of 400 nM fluorescein-labeled LRRKtide peptide substrate and 134 μM ATP solution in 1× assay buffer. The reaction was allowed to progress at ambient temperature for 90 minutes. The reaction was then stopped by the addition of 20 μl of TR-FRET Dilution Buffer (Life Technologies, Carlsbad, Calif.) containing 2 nM Tb-labeled anti-phospho LRRKtide antibody and 10 mM EDTA (Life Technologies, Carlsbad, Calif.). After an incubation of 1 hour at room temperature, the plate was read on an EnVision multimode plate reader (Perkin Elmer, Waltham, Mass.) with an excitation wavelength of 337 nm (Laser) and a reading emission at both 520 and 495 nm. Compound IC50s were interpolated from nonlinear regression best fits of the log of the final compound concentration, plotted as a function of the 520/495-nm emission ratio using Activity base. Abase uses a 4 parameter (4P) logistic fit based on the Levenberg-Marquardt algorithm.

Structure (SMILES)	pIC50
CN1CCN(c2cc(-n3ncc4ccc(C5(C#N)CC6(CC6)C5)cc43)ncn2)CC1CO (single isomer, unassigned) [Example 16, 5-(1-(6-(3-(hydroxymethyl)-4-methylpiperazin-1-yl)pyrimidin-4-yl)-1H-indazol-6-yl)spiro[2.3]hexane-5-carbonitrile]	8.92
C[C@H]1CN(c2cc(-n3ncc4ccc(C5(C#N)CC6(CC6)C5)cc43)ncn2)CCN1C1COC1 [Example 13, (S)-5-(1-(6-(3-methyl-4-(oxetan-3-yl)piperazin-1-yl)pyrimidin-4-yl)-1H-indazol-6-yl)spiro[2.3]hexane-5-carbonitrile]	9.00
CN1CCOC2CN(c3cc(-n4ncc5ccc(C6(C#N)CC7(CC7)C6)cc54)ncn3)CC21 (single isomer, unassigned) [Example 40, 5-(1-(6-(4-methylhexahydropyrrolo[3,4-b][1,4]oxazin-6(2H)-yl)pyrimidin-4-yl)-1H-indazol-6-yl)spiro[2.3]hexane-5-carbonitrile]	9.05
N#CC1(c2ccc3cnn(-c4cc(N5CC(O)(C6CC6)C5)ncn4)c3c2)CC2(CC2)C1 [Example 27, 5-(1-(6-(3-cyclopropyl-3-hydroxyazetidin-1-yl)pyrimidin-4-yl)-1H-indazol-6-yl)spiro[2.3]hexane-5-carbonitrile]	8.13
CC(C)(O)C12CC(C1)N(c1cc(-n3ncc4ccc(C5(C#N)CC6(CC6)C5)cc43)ncn1)C2 [Example 12, 5-(1-(6-(4-(2-hydroxypropan-2-yl)-2-azabicyclo[2.1.1]hexan-2-yl)pyrimidin-4-yl)-1H-indazol-6-yl)spiro[2.3]hexane-5-carbonitrile]	8.59
N#CC1(c2ccc3cnn(-c4cc(N5CCO[C@H](CO)C5)ncn4)c3c2)CC2(CC2)C1 [Example 14, (S)-5-(1-(6-(2-(hydroxy-methyl)morpholino)pyrimidin-4-yl)-1H-indazol-6-yl)spiro[2.3]hexane-5-carbonitrile]	8.54
C[C@H]1CN(c2cc(-n3ncc4ccc(C5(C#N)CC6(CC6)C5)cc43)ncn2)CCN1C1CCOC1 (single isomer, unassigned) [Example 35]	8.46
CC1C(C(C)(C)O)CCN1c1cc(-n2ncc3ccc(C4(C#N)CC5(CC5)C4)cc32)ncn1 (single isomer, unassigned) [Example 39, 5-(1-(6-(3-(2-hydroxypropan-2-yl)-2-methylpyrrolidin-1-yl)pyrimidin-4-yl)-1H-indazol-6-yl)spiro[2.3]hexane-5-carbonitrile]	8.92
N#CC1(c2ccc3cnn(-c4cc(N5CCN6CCOC[C@H]6C5)ncn4)c3c2)CC2(CC2)C1 [Example 46, (R)-5-(1-(6-(hexahydropyrazino[2,1-c][1,4]oxazin-8(1H)-yl)pyrimidin-4-yl)-1H-indazol-6-yl)spiro[2.3]hexane-5-carbonitrile]	8.15
Cc1nc(N2CCN3CCOC[C@@H]3C2)cc(-n2ncc3cnc(C4(C#N)CC5(CC5)C4)cc32)n1 [Example 48, (S)-5-(1-(6-(hexahydropyrazino[2,1-c][1,4]oxazin-8(1H)-yl)-2-methylpyrimidin-4-yl)-1H-pyrazolo[4,3-c]pyridin-6-yl)spiro[2.3]hexane-5-carbonitrile]	7.69
C[C@H]1CN(c2cc(-n3ncc4ccc(C5(C#N)CC6(CC6)C5)cc43)ccn2)CCN1C1COC1 [Example 31, (S)-5-(1-(2-(3-methyl-4-(oxetan-3-yl)piperazin-1-yl)pyridin-4-yl)-1H-indazol-6-yl)spiro[2.3]hexane-5-carbonitrile]	7.95
N#CC1(c2ccc3cnn(-c4cc(N5CC[C@@H](CO)C5)ncn4)c3c2)CC2(CC2)C1 [Example 8, (R)-5-(1-(6-(3-(hydroxy-methyl)pyrrolidin-1-yl)pyrimidin-4-yl)-1H-indazol-6-yl)spiro[2.3]hexane-5-carbonitrile]	8.54
COC1(C)CN(c2cc(-n3ncc4ccc(C5(C#N)CC6(CC6)C5)cc43)ncn2)C1 [Example 26, 5-(1-(6-(3-methoxy-3-methylazetidin-1-yl)pyrimidin-4-yl)-1H-indazol-6-yl)spiro[2.3]hexane-5-carbonitrile]	8.37
N#CC1(c2ccc3cnn(-c4cc(N5CCN6CCOC[C@@H]6C5)ncn4)c3c2)CC2(CC2)C1 [Example 45, (S)-5-(1-(6-(hexahydropyrazino[2,1-c][1,4]oxazin-8(1H)-yl)pyrimidin-4-yl)-1H-indazol-6-yl)spiro[2.3]hexane-5-carbonitrile]	8.70
CC1CC12CC(C#N)(c1ccc3cnn(-c4cc(N5CCN6CCOC[C@@H]6C5)ncn4)c3c1)C2 (single isomer, unassigned) [Example 52]	8.62
N#CC1(c2ccc3cnn(-c4cc(N5CCC(C6COC6)CC5)ncn4)c3c2)CC2(CC2)C1 [Example 44, 5-(1-(6-(4-(oxetan-3-yl)piperidin-1-yl)pyrimidin-4-yl)-1H-indazol-6-yl)spiro[2.3]hexane-5-carbonitrile]	8.30
CN1CCOC2CN(c3cc(-n4ncc5ccc(C6(C#N)CC7(CC7)C6)cc54)ncn3)CC21 (single isomer, unassigned) [Example 41]	8.92
Cc1nc(N2CC[C@@H](O)[C@@H](F)C2)cc(-n2ncc3ccc(C4(C#N)CC5(CC5)C4)cc32)n1 [Example 4, 5-(1-(6-((3S,4R)-3-fluoro-4-hydroxypiperidin-1-yl)-2-methylpyrimidin-4-yl)-1H-indazol-6-yl)spiro[2.3]hexane-5-carbonitrile]	8.13
CC(C)(O)C1CN(c2cc(-n3ncc4ccc(C5(C#N)CC6(CC6)C5)cc43)ncn2)CC1F (single isomer, unassigned) [Example 22, 5-(1-(6-(3-fluoro-4-(2-hydroxypropan-2-yl)pyrrolidin-1-yl)pyrimidin-4-yl)-1H-indazol-6-yl)spiro[2.3]hexane-5-carbonitrile]	8.43
CC(C)(O)C1CN(c2cc(-n3ncc4ccc(C5(C#N)CC6(CC6)C5)cc43)ncn2)C1 [Example 24, 5-(1-(6-(3-(2-hydroxypropan-2-yl)azetidin-1-yl)pyrimidin-4-yl)-1H-indazol-6-yl)spiro[2.3]hexane-5-carbonitrile]	8.59
Cc1nc(N2CC[C@H](O)[C@@H](F)C2)cc(-n2ncc3ccc(C4(C#N)CC5(CC5)C4)cc32)n1 [Example 2, 5-(1-(6-((3S,4S)-3-fluoro-4-hydroxypiperidin-1-yl)-2-methylpyrimidin-4-yl)-1H-indazol-6-yl)spiro[2.3]hexane-5-carbonitrile]	8.29
COCC12CC(C1)N(c1cc(-n3ncc4ccc(C5(C#N)CC6(CC6)C5)cc43)ncn1)C2 [Example 9, 5-(1-(6-(4-(methoxymethyl)-2-azabicyclo[2.1.1]hexan-2-yl)pyrimidin-4-yl)-1H-indazol-6-yl)spiro[2.3]hexane-5-carbonitrile]	8.03
C[C@@H]1CN(c2cc(-n3ncc4ccc(C5(C#N)CC6(CC6)C5)cc43)ncn2)C[C@H](C)[C@]1(C)O [Example 17, 5-(1-(6-((3S,4s,5R and 3R,4s,5S)-4-hydroxy-3,4,5-trimethylpiperidin-1-yl)pyrimidin-4-yl)-1H-indazol-6-yl)spiro[2.3]hexane-5-carbonitrile]	8.05
Cc1nc(N2CCN3CCOC[C@@H]3C2)cc(-n2ncc3ccc(C4(C#N)CC5(CC5)C4)cc32)n1 [Example 47, (S)-5-(1-(6-(hexahydropyrazino[2,1-c][1,4]oxazin-8(1H)-yl)-2-methylpyrimidin-4-yl)-1H-indazol-6-yl)spiro[2.3]hexane-5-carbonitrile]	8.49
CC(C)(O)[C@@H]1CN(c2cc(-n3ncc4ccc(C5(C#N)CC6(CC6)C5)cc43)ncn2)CCO1 [Example 43, (S)-5-(1-(6-(2-(2-hydroxypropan-2-yl)morpholino)pyrimidin-4-yl)-1H-indazol-6-yl)spiro[2.3]hexane-5-carbonitrile]	9.05
CC1CC12CC(C#N)(c1ccc3cnn(-c4cc(N5CCN6CCOC[C@@H]6C5)ncn4)c3c1)C2 (single isomer, unassigned) [Example 50]	8.36
CC1C2(CC2)CC1(C#N)c1ccc2cnn(-c3cc(N4CCN5CCOC[C@@H]5C4)ncn3)c2c1 (single isomer, unassigned) [Example 55]	7.47
COCc1nc(N2CC3(C(C)(C)O)CC2C3)cc(-n2ncc3ccc(C4(C#N)CC5(CC5)C4)cc32)n1 [Example 20, 5-(1-(6-(4-(2-hydroxypropan-2-yl)-2-azabicyclo[2.1.1]hexan-2-yl)-2-(methoxy-methyl)pyrimidin-4-yl)-1H-indazol-6-yl)spiro[2.3]hexane-5-carbonitrile]	7.79
